In patent publication US20030060463A1, “Preparation of topical regional compositions for the relief of pain” (priority 1995, published 2003):
Like-named read-outs stand apart in the source and are kept apart here.

System: pain due to nerve injury (SMP)
Format: in vivo, human
Text: The purpose of this study was to evaluate and compare the safety and efficacy in the application of five topical compositions prepared with three active ingredients and applied singly or in combinations for the purpose of relief of sympathetically mediated pain (SMP).
The study size was a total of thirty four volunteer subjects; fifteen female and nineteen male volunteer subjects. Their ages ranged from 29 to 84 with a mean of 52 years of age. All subjects were diagnosed with severe sympathetically mediated pain.
Three different therapeutically active agents were utilized, alone or in combination, in preparations of lecithin matrix gels.
A different composition was applied each treatment day to the area of maximum pain. The patients were asked to indicate the level of their pain immediately prior to the application of the compositions, and then at intervals of 5, 10, 15 minutes, 1, 2 and 3 hours after receiving treatment. Pain intensity was measured using the scale below.
SIGNIFICANT PAIN RELIEF WAS DEFINED AS >50% PAIN RELIEF SUSTAINED GREATER THAN 2 HOURS. For example, if a given patient rated their pain immediately prior to application of the compositions as “very intense”, they would get a 1.8 score per the scale. […]

| Structure (SMILES) | Safety and efficacy in clinical trials at other dosages (dosage between 0.05% to 2% of the topical composition) | Safety and efficacy in clinical trials at other dosages (human, in vivo) |
| --- | --- | --- |
| CNC1(c2ccccc2Cl)CCCCC1=O (centres unmarked) [ketamine] | safe and effective | – |
| CN(C)CCC=C1c2ccccc2CCc2ccccc21 [amitriptylline] | – | safe and effective |
